Data as given in patent publication US5773424A, “Treatment of toxoplasmosis” (priority 1994, dated 1998).

Key:
[1] = target: T. gondii adenosine kinase (Toxoplasma gondii, UniProt Q9TVW2); assay: biochemical; settings: AppKi for inhibition of T. gondii adenosine kinase, 5 μM adenosine; ± range, at least two estimations
[2] = tested on: extracts of Toxoplasma gondii; assay: Inhibition of phosphorylation of NBMPR (formation of NBMPR-P); assay type: biochemical
Protocol: (§1) Enzyme assay. […] Incubation was carried out at 37° C.

extracts of human liver = assay: Inhibition of phosphorylation of NBMPR; assay type: biochemical
Protocol: as §1

[3] = tested on: extracts of Toxoplasma gondii; assay: Inhibition of phosphorylation of adenosine (or inosine) to nucleoside 5'-monophosphate; assay type: biochemical; settings: T. gondii extract
Protocol: as §1

[4] = tested on: extracts from human liver; assay: Inhibition of phosphorylation of adenosine; assay type: biochemical; settings: human liver extract
Protocol: as §1

[5] = tested on: extracts from mouse liver; assay: Inhibition of phosphorylation of adenosine; assay type: biochemical; settings: mouse liver extract
Protocol: as §1

[6] = substrate: Nc1ncnc2c1ncn2[C@@H]1O[C@H](CO)[C@@H](O)[C@H]1O; assay: cells, lysate or membranes named; settings: other: adenosine as substrate; pH 8.0
Protocol: Preparation of cytosol extracts. For the structure activity relationships studies, approximately 5×10^8 T. gondii were suspended in 1.2 ml of 50 mM N-2-hydroxyethylpiperazine-N'-2-ethanesulfonic acid (HEPES)-Cl (pH 8.0)/1 mM dithiothreitol and homogenized for 30 seconds at setting 10, using a Brinnmann Instruments Polytron homogenizer fitted with a PTA 7K1 probe. The homogenate was then centrifuged at approximately 116,000 g for 1 hour at 5° and the supernatant (cytosol extract) collected and used as the enzyme source. Fresh cytosol extracts were prepared for each experiment.
Adenosine kinase assay. T. gondii adenosine kinase activity was measured by following the formation of [^14 C]AMP from [^14 C]adenosine and ATP. […]
Reactions were started by the addition of [8-^14 C]adenosine, incubated at 37° for 10 minutes and terminated by placing the reaction tubes in a boiling water bath for 2 minutes. […] The substrate and product spots (which accounted for all of the radioactivity on the plates) were identified by UV quenching, cut out, and the radioactivity quantitated by liquid scintillation counting in 20 ml of Scintilene, using a Packard 460 scintillation counter. […] Enzyme velocity was calculated by multiplying the fraction of AMP formed from adenosine times the amount of adenosine in the assay, and dividing by the incubation time. […]

Molecule: Nc1ncnc2c([C@@H]3O[C@H](CO)[C@@H](O)[C@H]3O)n[nH]c12 [Compound 81, 8-Aza-9-deazaadenosine (formycin A)]
- Ki [1]: 1400 µM
- % Inhibition of phosphorylation of NBMPR, T. gondii ([2]; 100 μM): 0%
- % Inhibition of phosphorylation of NBMPR, T. gondii ([2]; 250 μM): 0%
- % Inhibition of phosphorylation of NBMPR, T. gondii ([2]; 500 μM): 0%
- % Inhibition of phosphorylation of NBMPR, Human Liver (extracts of human liver; 100 μM): 0%
- % Inhibition of phosphorylation of NBMPR, Human Liver (extracts of human liver; 250 μM): 0%
- % Inhibition of phosphorylation of NBMPR, Human Liver (extracts of human liver; 500 μM): 0%
- Effect on the phosphorylation of adenosine, in words [3]: no effect
- Effect on the phosphorylation of adenosine, in words [4]: no effect
- Effect on the phosphorylation of adenosine, in words [5]: no effect

Molecule: Nc1nc2c(nc(N)n2[C@@H]2O[C@H](CO)[C@@H](O)[C@H]2O)c(=O)[nH]1 [8-Aminoguanosine, reference compound]
- % Inhibition of phosphorylation of NBMPR, T. gondii ([2]; 25 μM): 0%
- % Inhibition of phosphorylation of NBMPR, T. gondii ([2]; 50 μM): 0%
- % Inhibition of phosphorylation of NBMPR, T. gondii ([2]; 100 μM): 0%
- % Inhibition of phosphorylation of NBMPR, Human Liver (extracts of human liver; 25 μM): 0%
- % Inhibition of phosphorylation of NBMPR, Human Liver (extracts of human liver; 50 μM): 0%
- % Inhibition of phosphorylation of NBMPR, Human Liver (extracts of human liver; 100 μM): 0%
- Effect on the phosphorylation of adenosine, in words [3]: no effect
- Effect on the phosphorylation of adenosine, in words [4]: no effect
- Effect on the phosphorylation of adenosine, in words [5]: no effect

B1: T. gondii adenosine kinase (Toxoplasma gondii) (protein)
chain: MAVDSSNSATGPMRVFAIGNPILDLVAEVPSSFLDEFFLKRGDATLATPEQMRIYSTLDQFNPTSLPGGSALNSVRVVQKLLRKPGSAGYMGAIGDDPRGQVLKELCDKEGLATRFMVAPGQSTGVCAVLINEKERTLCTHLGACGSFRLPEDWTTFASGALIFYATAYTLTATPKNALEVAGYAHGIPNAIFTLNLSAPFCVELYKDAMQSLLLHTNILFGNEEEFAHLAKVHNLVAAEKTALSTANKEHAVEVCTGALRLLTAGQNTGATKLVVMTRGHNPVIAAEQTADGTVVVHEVGVPVVAAEKIVDTNGAGDAFVGGFLYALSQGKTVKQCIMCGNACAQDVIQHVGFSLSFTSLPC
- Km [6]: 5 µM
